Measurements published in US20240368157A1, “FORMS AND COMPOSITIONS OF A JAK2 INHIBITOR” (Ajax Therapeutics, Inc., priority 2023, published 2024).
pIC50: −log10 of the molar value.

Columns and labels:
[1] = Hepatocyte Stability Assay (rat hepatocytes); assay type: in vitro ADME; details: cryopreserved hepatocytes, read-out: Rat Heps CLint
Description: (§1) 10 mM stock solutions of test compound and positive control are prepared in DMSO. Stock solutions are diluted to 100 μM by combining 198 μL of 50% acetonitrile/50% water and 2 μL of 10 mM stock solution. Verapamil is used as positive control in the assay. Vials of cryopreserved hepatocytes are thawed in a 37° C. water bath with gently shaking. The contents are poured into the 50 mL thawing medium conical tube. Vials are centrifuged at 100 g for 10 minutes at room temperature. Thawing medium is aspirated and hepatocytes are re-suspended with serum-free incubation medium to yield ˜1.5×10^6 cells/mL. Cell viability and density are counted using a Trypan Blue exclusion, and then cells are diluted with serum-free incubation medium to a working cell density of 0.5×10^6 viable cells/mL. A portion of the hepatocytes at 0.5×10^6 viable cells/mL are boiled for 5 min prior to adding to the plate as negative control to eliminate the enzymatic activity so that little or no substrate turnover should be observed. Aliquots of 198 μL hepatocytes are dispensed into each well of a 96-well non-coated plate. The plate is placed in the incubator for approximately 10 minutes. Aliquots of 2 μL of the 100 μM test compound and 2 μL positive control are added into respective wells of a non-coated 96-well plate to start the reaction. The final concentration of test compound is 1 μM. […]

[2] = molecular target: T1, JAK1 (Homo sapiens, UniProt P23458); experiment: JAK Family Selectivity Assay (JAK1 vs JAK2 binding affinity); details: selectivity over JAK2
T1 construct: made in house; host or cells: E. coli (BL21-derived, T7 phage display) or HEK-293
Description: (§2) Provided compounds are evaluated for selectivity by comparing their JAK2 binding affinity (Kd) in the above JAK2 Binding Assay with their binding affinity (Kd) for one or more other kinases. Binding affinity for other kinases is determined as follows: Kinase-tagged T7 phage strains are prepared in an E. coli host derived from the BL21 strain. E. coli are grown to log-phase and infected with T7 phage and incubated with shaking at 32° C. until lysis. The lysates are centrifuged and filtered to remove cell debris. The remaining kinases are produced in HEK-293 cells and subsequently tagged with DNA for qPCR detection. Streptavidin-coated magnetic beads are treated with biotinylated small molecule ligands for 30 minutes at room temperature to generate affinity resins for kinase assays. The liganded beads are blocked with excess biotin and washed with blocking buffer (SeaBlock (Pierce), 1% BSA, 0.05% Tween 20, 1 mM DTT) to remove unbound ligand and to reduce non-specific binding. Binding reactions are assembled by combining kinases, liganded affinity beads, and test compounds in 1× binding buffer (20% SeaBlock, 0.17×PBS, 0.05% Tween 20, 6 mM DTT). Test compounds are prepared as 111× stocks in 100% DMSO. Kds are determined using an 11-point 3-fold compound dilution series with three DMSO control points. […] The kinase concentration in the eluates is measured by qPCR. […]

[3] = test system: JAK2-mediated pSTAT5 signaling in constitutively active essential thrombocytopenia cells carrying the V617F mutation; experiment: SET2-pSTAT5 Cellular Assay; assay type: cell-based; details: Homo sapiens, SET-2, 4 hours
Description: This assay measures inhibition of JAK2-mediated pSTAT5 signaling in constitutively active essential thrombocytopenia cells carrying the V617F mutation. Cells are harvested from a flask into cell culture medium, and the number of cells is counted. The cells are diluted with culture medium and 100 μL of cell suspension (50000/well) is added into each well of a 96-well cell culture plate. A solution of test compound is added to the assay plate. The plates are covered with a lid and placed in a 37° C. 5% CO2 incubator for 4 hours. After 4 hours, the cells are spun, and the cell pellets are re-suspended with 100 μL cold PBS. Then, the cells are spun again at 4° C. and 4000 rpm for 5 min. PBS is aspirated, and 25 μL lysis buffer (with protease and phosphatase inhibitor cocktail) is added to each cell pellet. The cell lysate is shaken at 4° C. for 20 min to fully lyse the cells. The cell lysate is spun at 4° C. and 4000 rpm for 15 min, and then the supernatant is transferred into a new plate and stored at −80° C. Meso-scale discovery (MSD) is used to analyze plates as follows: a standard MSD plate is coated with capture antibody in PBS (40 μL/well) and is incubated at 4° C. overnight with shaking. […] MSD reading buffer (1×) is added to the plates (150 μL/well), and they are diluted from 4× with water. […]

[4] = molecular target: T2, TYK2 (Homo sapiens, UniProt P29597); experiment: JAK Family Selectivity Assay (TYK2 vs JAK2 binding affinity); details: selectivity over JAK2
T2 construct: made in house; host or cells: E. coli (BL21-derived, T7 phage display) or HEK-293
Description: as §2

[5] = Hepatocyte Stability Assay (human hepatocytes); assay type: in vitro ADME; details: cryopreserved hepatocytes, read-out: Human Heps CLint
Description: as §1

T2 sequence (P29597 whole entry): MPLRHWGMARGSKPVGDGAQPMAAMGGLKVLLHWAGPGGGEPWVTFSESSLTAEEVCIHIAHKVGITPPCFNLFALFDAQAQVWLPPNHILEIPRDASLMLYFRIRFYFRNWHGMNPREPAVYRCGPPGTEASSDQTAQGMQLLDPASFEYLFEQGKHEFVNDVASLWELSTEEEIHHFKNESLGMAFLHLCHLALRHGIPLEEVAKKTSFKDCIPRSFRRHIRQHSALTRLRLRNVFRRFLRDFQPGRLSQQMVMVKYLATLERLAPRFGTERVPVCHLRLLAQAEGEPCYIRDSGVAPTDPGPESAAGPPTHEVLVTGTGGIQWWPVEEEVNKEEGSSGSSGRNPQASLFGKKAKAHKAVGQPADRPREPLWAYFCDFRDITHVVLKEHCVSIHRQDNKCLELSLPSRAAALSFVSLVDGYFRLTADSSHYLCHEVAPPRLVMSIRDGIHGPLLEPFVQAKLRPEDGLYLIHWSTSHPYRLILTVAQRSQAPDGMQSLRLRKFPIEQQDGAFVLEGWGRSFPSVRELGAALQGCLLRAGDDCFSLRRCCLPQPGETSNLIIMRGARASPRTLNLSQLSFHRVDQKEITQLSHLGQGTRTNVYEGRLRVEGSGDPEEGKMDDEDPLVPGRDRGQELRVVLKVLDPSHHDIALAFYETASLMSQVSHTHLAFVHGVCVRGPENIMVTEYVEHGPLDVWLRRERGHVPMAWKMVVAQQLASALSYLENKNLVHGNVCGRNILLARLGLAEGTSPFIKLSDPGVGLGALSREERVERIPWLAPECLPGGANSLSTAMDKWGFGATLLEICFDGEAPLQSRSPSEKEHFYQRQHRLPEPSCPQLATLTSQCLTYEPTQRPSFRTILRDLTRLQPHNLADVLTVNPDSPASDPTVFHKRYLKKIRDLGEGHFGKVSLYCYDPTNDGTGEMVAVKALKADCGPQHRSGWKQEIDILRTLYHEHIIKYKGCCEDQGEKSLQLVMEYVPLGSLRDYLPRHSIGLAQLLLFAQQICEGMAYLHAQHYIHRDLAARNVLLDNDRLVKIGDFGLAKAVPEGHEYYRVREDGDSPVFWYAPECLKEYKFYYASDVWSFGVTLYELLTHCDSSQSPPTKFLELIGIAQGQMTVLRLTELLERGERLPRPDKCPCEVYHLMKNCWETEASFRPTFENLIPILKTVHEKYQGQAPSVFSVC
T1 sequence (P23458 whole entry): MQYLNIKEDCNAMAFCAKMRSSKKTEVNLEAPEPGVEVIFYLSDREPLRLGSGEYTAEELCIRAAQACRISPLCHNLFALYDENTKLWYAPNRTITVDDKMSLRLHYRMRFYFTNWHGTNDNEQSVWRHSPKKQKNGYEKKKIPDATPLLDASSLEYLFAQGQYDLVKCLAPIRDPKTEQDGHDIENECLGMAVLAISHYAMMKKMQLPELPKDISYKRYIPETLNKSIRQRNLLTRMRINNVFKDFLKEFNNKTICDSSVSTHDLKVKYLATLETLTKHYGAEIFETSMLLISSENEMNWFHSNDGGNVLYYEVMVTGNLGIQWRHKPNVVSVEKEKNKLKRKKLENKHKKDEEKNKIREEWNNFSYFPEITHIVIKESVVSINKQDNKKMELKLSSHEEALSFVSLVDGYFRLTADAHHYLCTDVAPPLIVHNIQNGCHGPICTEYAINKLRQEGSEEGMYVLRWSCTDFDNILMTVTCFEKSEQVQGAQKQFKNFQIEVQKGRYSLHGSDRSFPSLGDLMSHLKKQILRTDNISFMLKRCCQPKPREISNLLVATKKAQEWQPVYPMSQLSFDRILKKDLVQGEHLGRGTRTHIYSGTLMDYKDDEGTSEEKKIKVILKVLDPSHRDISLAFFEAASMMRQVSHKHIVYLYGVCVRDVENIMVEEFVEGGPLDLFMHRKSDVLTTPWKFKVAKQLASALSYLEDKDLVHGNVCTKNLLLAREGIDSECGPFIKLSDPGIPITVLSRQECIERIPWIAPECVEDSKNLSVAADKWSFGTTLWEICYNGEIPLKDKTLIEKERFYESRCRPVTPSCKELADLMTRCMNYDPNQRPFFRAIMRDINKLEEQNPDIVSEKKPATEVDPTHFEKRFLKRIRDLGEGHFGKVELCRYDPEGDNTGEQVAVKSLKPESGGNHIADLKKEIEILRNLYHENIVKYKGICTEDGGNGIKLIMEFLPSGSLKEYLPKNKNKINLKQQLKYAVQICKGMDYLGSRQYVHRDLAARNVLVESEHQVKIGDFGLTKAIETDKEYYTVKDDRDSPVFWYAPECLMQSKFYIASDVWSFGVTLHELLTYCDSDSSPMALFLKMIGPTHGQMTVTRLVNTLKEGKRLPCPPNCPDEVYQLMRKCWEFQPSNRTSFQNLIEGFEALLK

Row | Structure (SMILES) | CLint scaled at 1 μM [1] [L/h/kg] | JAK1/JAK2 Kd/Kd ratio [2] | pIC50 [3] | TYK2/JAK2 Kd/Kd ratio [4] | CLint scaled at 1 μM [5] [L/h/kg]
1 | CN(C)C(=O)Nc1cc(Oc2cnc3nc(Nc4cc(C(F)(F)F)cn(C)c4=O)n(C)c3c2C#N)ccn1 [Compound 1, 3-(4-((7-cyano-1-methyl-2-((1-methyl-2-oxo-5-(trifluoromethyl)-1,2-dihydropyridin-3-yl)amino)-1H-imidazo[4,5-b]pyridin-6-yl)oxy)pyridin-2-yl)-1,1-dimethylurea] | 1.02 to 2.1 | B (Kd/Kd ratio<1000 and ≥300) | > 6.90 | C (Kd/Kd ratio<300 and ≥100) | ≤ 0.36
2 | CCN1CCN(Cc2ccc(Nc3nc4ccc(Oc5ccnc(NC(C)=O)c5)cc4n3C)cc2C(F)(F)F)CC1 [Compound R-1, reference compound] | 2.1 to 2.7 | C (Kd/Kd ratio<300 and ≥100) | 6.00 to 6.70 | C (Kd/Kd ratio<300 and ≥100) | 0.72 to 1.2
